Legend:
[1] = tested on: Wistar rats; test: Rotenone-induced PD: severe oligokinesia in open field test; type: in vivo, rat; settings: oligokinesia ++-+++ in OF test
Experimental: Locomotive activity of rats was tested in the “open field” test. […] Registration of horizontal and vertical locomotive activity was carried out in first day for rats with high selection locomotive activity (total walking time with not less than 12 seconds and the number of vertical uprights at least 4), 60 minutes before the first administration of rotenone. To identify the rotenone-induced oligokinesia in each experimental group the locomotive activity in the open field test was examined again 2 hours after the administration of rotenone on days 12 and 19 of the experiment.
(§1) Quantification of oligokinesia in points: 0 points—the highest horizontal activity (walking total time more than 12 seconds) and high vertical activity (number of vertical posts) more than 3; 1 point—reducing the horizontal activity (total walking time 7-11 seconds) and a decrease in vertical activity (the number of vertical columns 1-3); 2 points—a significant reduction in horizontal activity (total walking time 2-6 seconds) and the absence of vertical activity (the number of vertical columns 0-1); 3 points—the absence of horizontal activity (total walking time 0-1 seconds) and the absence of vertical activity (number of vertical columns 0). In each experimental group 120 minutes after administration of rotenone on days 12 and 19 of experiment the number of rats with severe oligokinesia (2-3 points) in % of the total number of rats in group was determined.
Locomotive activity of rats was tested in the “open field” test. […] Registration of horizontal and vertical locomotive activity was carried out in first day for rats with high selection locomotive activity (total walking time with not less than 12 seconds and the number of vertical uprights at least 4), 60 minutes before the first administration of rotenone. To identify the rotenone-induced oligokynesia in each experimental group the locomotive activity in the open field test was examined again 2 hours after the administration of rotenone on days 12 and 19 of the experiment.
as §1, with “of oligokynesia” for “of oligokinesia”

[2] = tested on: Wistar rats; test: Rotenone-induced PSP: severe ataxia, limb dystonia and lethality; type: in vivo, rat; settings: for Severe ataxia sustained dystonic postures and lethality (% of group): ataxia and limb dystonia ++-+++; for [lethality] (% of group): value in brackets
Experimental: The neuro-protective effect in the experimental groups of rats with rotenone-induced PSP was evaluated due the elimination of ataxia, limb dystonia and mortality caused by cerebellar neurotoxic action of rotenone (J. Neurochem., 2005, Vol. 95(4):930-9).
Ataxia and limb dystonia is typical incoordination neurotoxic effect of rotenone manifested in uncoordinated movements and hyper-locomotion, replaced by hypokinesia and stereotypes, and in severe cases a complete violation of antigravity reflexes, falling on its side dystonic posture and akinesia. Assessment of the severity of ataxia and limb dystonia in scores was performed using the following scale: (+) uncoordinated movement, hyperkinesia; (++) significant incoordination, hypokinesia, stereotypes, falling on its side; frequent spontaneous dystonic postures (+++) complete violation of antigravity reflexes, akinesia, sustained dystonic posture (J. Neurosci., 2014, 27; 34(35):11723-32)
Ataxia and limb dystonia registration was performed twice daily, 30 minutes before administration of rotenone and 180 minutes after administration of rotenone. For each experimental group on a daily basis, throughout the whole period of observation number of rats with severe ataxia and limb dystonia (++−+++) and mortality in % of the total number of rats in group was determined. The neuro-protective effect of therapy (effects on rate of ataxia, limb dystonia and lethality) in rats with PSP was determined at days 12 and 19 of the experiment as reducing the number of rats with severe ataxia limb dystonia and mortality in % compared to control. Side hyperkinetic effects were evaluated in the “open field” test. In this test the locomotive activity in rats is determined. […] Registration of horizontal and vertical locomotive activity in OF assay was performed on the 10th and 18th day of the experiment, within 40 minutes after administration of the substance and 5 minutes before administration of rotenone. Side hyperkinetic effects was evaluated by the number of rats with a significant (at least 50% compared with the first day of the experiment) increase in horizontal and vertical activity (hyperkinesia) as a % of the total number of rats in group.
The neuro-protective effect in the experimental groups of rats with rotenone-induced PSP was evaluated due the elimination of ataxia and mortality caused by neurotoxic action of rotenone. Ataxia is typical incoordination neurotoxic effect of rotenone manifested in uncoordinated movements and hyper-locomotion, replaced by hypokinesia and stereotypes, and in severe cases a complete violation of antigravity reflexes, falling on its side and akinesia. Assessment of the severity of ataxia in scores was performed using the following scale: (+) uncoordinated movement, hyperkinesia; (++) significant incoordination, hypokinesia, stereotypes, falling on its side; (+++) complete violation of antigravity reflexes, akinesia. Ataxia registration was performed twice daily, 30 minutes before administration of rotenone and 180 minutes after administration of rotenone. For each experimental group on a daily basis, throughout the whole period of observation number of rats with severe ataxia (++−+++) and mortality in % of the total number of rats in group was determined. The neuro-protective effect of therapy (effects on rate of ataxia and lethality) in rats with PSP was determined at days 12 and 19 of the experiment as reducing the number of rats with severe ataxia and mortality in % compared to control. Side hyperkinetic effects were evaluated in the “open field” test. In this test the locomotive activity in rats is determined. […] Registration of horizontal and vertical locomotive activity in OF assay was performed on the 10th and 18th day of the experiment, within 40 minutes after administration of the substance and 5 minutes before administration of rotenone.

[3] = tested on: male Wistar rats; test: Opioid hyperalgesia in tail and paw withdrawal tests (% rats)

N[C@@H](Cc1ccc(O)c(O)c1)C(=O)O [Levodopa, L-3,4-dihydroxyphenylalanine]
Severe oligokinesia (% of group) ([1]; Day 12, levodopa 10 mg/kg oral): 86 % of group
Severe oligokinesia (% of group) ([1]; Day 12, levodopa 20 mg/kg oral): 50 % of group
Severe oligokinesia (% of group) ([1]; Day 19, levodopa 10 mg/kg oral): 100 % of group
Severe oligokinesia (% of group) ([1]; Day 19, levodopa 20 mg/kg oral): 63 % of group
Severe ataxia sustained dystonic postures and lethality (% of group) ([2]; Day 12, levodopa 10 mg/kg oral): 14 % of group
[lethality] (% of group) ([2]; Day 12, levodopa 10 mg/kg oral): 0 % of group
Severe ataxia sustained dystonic postures and lethality (% of group) ([2]; Day 12, levodopa 20 mg/kg oral): 0[0] % of group
[lethality] (% of group) ([2]; Day 12, levodopa 20 mg/kg oral): 0[0] % of group
Severe ataxia sustained dystonic postures and lethality (% of group) ([2]; Day 19, levodopa 10 mg/kg oral): 42 % of group
[lethality] (% of group) ([2]; Day 19, levodopa 10 mg/kg oral): 14 % of group
Severe ataxia sustained dystonic postures and lethality (% of group) ([2]; Day 19, levodopa 20 mg/kg oral): 24 % of group
[lethality] (% of group) ([2]; Day 19, levodopa 20 mg/kg oral): 0 % of group

CC12CC3CC(C)(C1)CC(N)(C3)C2 [Memantine, memantine]
Severe oligokinesia (% of group) ([1]; Day 12, memantine 5 mg/kg oral): 50 % of group
Severe oligokinesia (% of group) ([1]; Day 19, memantine 5 mg/kg oral): 50 % of group
Severe ataxia sustained dystonic postures and lethality (% of group) ([2]; Day 12, memantine 5 mg/kg oral): 0 % of group
[lethality] (% of group) ([2]; Day 12, memantine 5 mg/kg oral): 17 % of group
Severe ataxia sustained dystonic postures and lethality (% of group) ([2]; Day 19, memantine 5 mg/kg oral): 17[17] % of group
[lethality] (% of group) ([2]; Day 19, memantine 5 mg/kg oral): 17[17] % of group
Hyperalgesia ([3]; doses as E6): 0 % rats
Hyperalgesia ([3]; doses as E12): 0 % rats
Hyperalgesia ([3]; doses as E48): 0 % rats
Hyperalgesia ([3]; doses as E54): 0 % rats

Reference: patent US20200188388A1, “METHODS AND COMPOSITIONS FOR PO[…] DRUGS AND REDUCING THEIR SIDE EFFECTS” (RVX THERAPEUTICS LTD., priority 2016, published 2020)
